Data set [1] concerns YML007w yeast.
Description: Yeast strains used were S. cerevisiae GRF18U (Brambilla, L. et al., 1999, FEMS Microb. Lett. 171, 133-140), S. cerevisiae GRFc (Brambilla et al. 1999 FEMS Microb. Lett. 171: 133-140), S. cerevisiae BY4742 (MATα; his3; leu2, lys2; ura3, EuroScarf Accession No. Y10000), S. cerevisiae YML007w (BY4742; MATα; his3; leu2, lys2; ura; YML007w::KanMX4 (the yap1 deleted strain) EuroScarf Accession No. Y10569); CEN.PK 113-5D (MATα ura3-52; cir+) (see, for example, VanDijken et al. (2000) Enzyme Microb. Technol. 26, 706-714); and BY4741 (MATα; his3; leu2; met 15; ura3, Euroscarf Accession No. Y00000), or strains derived from them through transformation with the different developed plasmids. All strains were cultivated in shake flasks in minimal medium (0.67% w/v YNB (Difco Laboratories, Detroit, Mich. #919-15), 2% w/v glucose or mannose, with addition of the appropriate amino acids or adenine or uracil, respectively, to 50 μL-^1) and/or the appropriate antibiotic (G418 or hygromicin to 500 mg/l and 400 mg/l, respectively) under standard conditions (shaking at 30° C.). The initial optical density at 660 nm was about 0.05 for ascorbic acid determination, and 0.1 for the kinetics of the recovery from oxidative stress.
The yeast strains were grown on mineral medium (2% glucose, 0.67% YNB) starting from an OD^660 of 0.1. […]
Data set [2] relates to YML007w yeast. Description: Growth (OD660) of yap1-deleted yeast under H2O2 oxidative stress with ascorbic acid in the medium. Particulars: 0.8 or 1.0 mM H2O2; ascorbic acid added at T=0 at 15 mg/L; minimal medium 2% glucose. The data set is classed as cell-based, S. cerevisiae. The procedure:
FIG. 3A. […] Ascorbic acid was added at T=0 at a final concentration of 15 mg/L. BY4742 (▴); YML007w (◯).
FIG. 3B. […] Ascorbic acid was added at T=0 at a final concentration of 15 mg/L. BY4742 (▴); YML007w (◯).

The test system of data set [3] is GRFc, BY4741, and CEN.PK 113-5D yeast strains. Description: Growth of wild type yeast strains in medium containing lactic acid at pH 3 with added ascorbic acid. Particulars: 2xYNB medium, lactic acid 40 g/l, pH3.
Protocol: Ascorbic acid was added to the medium at the concentrations shown.
For data set [4], the system named is S. cerevisiae strain NRRL Y-30696. Description: Growth and lactic acid production of lactic acid producing yeast with exogenous ascorbic acid. Format: cell-based. Particulars: minimal glucose medium, 2.78 g/L CaCO3, 0, 0.16, 0.3 or 0.6 g/L ascorbic acid. The procedure: S. cerevisiae strain NRRL Y-30696 was inoculated in minimal glucose medium and 2.78 g/L CaCO3 or minimal glucose medium with 2.78 g/L CaCO3 and 0.16, 0.3, or 0.6 g/L ascorbic acid. OD660 (open symbols) and lactic acid (closed symbols) were monitored with time. The pH dropped in each case to 2.5 at 67 hours.

Data on 2 molecules can be found in patent publication US20070141687A1, “Increase in stress tolerance with ascorbic acid during fermentation” (priority 2005, published 2007).

Like-named read-outs stand apart in the source and are kept apart here.

With `OO` [hydrogen peroxide], the results for the “growth of YML007w yeast host” value in data set [1] (0.8 mM hydrogen peroxide in medium) and in data set [1] (1 mM hydrogen peroxide in medium) were “strongly delayed” and “completely impaired”, respectively.

With `O=C1O[C@H]([C@@H](O)CO)C(O)=C1O` [ascorbic acid, L-ascorbic acid], the “growth sensitivity of YML007w yeast to H2O2 (OD660)” value in data set [2] was “can be rescued”. For the same molecule, the “dose dependence of the effect of ascorbic acid on growth” value in data set [3] was “dose dependent”. The “effect on growth inhibition by lactic acid (OD660)” value in data set [3] (zero or increasing ascorbic acid) was “negative effects of lactic acid on growth can be overcome”. The lactic acid production entry in data set [4] was “equivalent at each level”. Further, the “growth as measured by OD660” value in data set [4] (pH dropped to 2.5 at 67 hours) is “increased with increasing ascorbic acid”.
